Tests used:
[1] = test system: Pyrenophora teres; test: Pyrenophora test (barley)/preventive; type: in vivo; conditions: preventive, 500 ppm, evaluated 7-9 days after inoculation
Protocol: (§1) The plants remain for 48 hours in an incubation cabinet at 22° C. and a relative atmospheric humidity of 100%. Then the plants are placed in a greenhouse at a temperature of approximately 20° C. and a relative atmospheric humidity of approximately 80%.

[2] = test system: Cochliobolus miyabeanus; test: Cochliobolus test (rice)/protective; conditions: protective, 250 ppm, evaluated 4 days after inoculation
Protocol: • Solvent: 28.5 parts by weight of acetone • Emulsifier: 1.5 part by weight of alkylaryl polyglycol ether
1 day after the treatment, the plants are inoculated with an aqueous spore suspension of Cochliobolus miyabeanus. The plants are then placed in a greenhouse at a relative atmospheric humidity of 100% and a temperature of 25° C.
Evaluation is carried out 4 days after the inoculation.

[3] = test system: Rhizoctonia solani; test: Rhizoctonia test (rice)/protective; type: in vivo; conditions: protective, 250 ppm, evaluated 4 days after inoculation
Source text: Rhizoctonia Test (Rice)/Protective

[4] = test system: Venturia inaequalis; test: Venturia test (apples)/preventive; type: in vivo; conditions: preventive, 100 ppm, evaluated 10 days after inoculation
Protocol: Venturia Test (Apples)/Preventive […] After the spray coating has dried on, the plants are inoculated with an aqueous conidia suspension of the causal agent of apple scab (Venturia inaequalis) and then remain for 1 day in an incubation cabinet at approximately 20° C. and a relative atmospheric humidity of 100%.

[5] = test system: Puccinia recondita; test: Puccinia test (wheat)/preventive; type: in vivo; conditions: preventive, 500 ppm, evaluated 7-9 days after inoculation
Protocol: as §1

[6] = test system: Alternaria solani; test: Alternaria test (tomato)/preventive; type: in vivo; conditions: preventive, 500 ppm, evaluated 7 days after inoculation
Protocol: The plants remain for one day in an incubation cabinet at approximately 22° C. and a relative atmospheric humidity of 100%. Then the plants are placed in an incubation cabinet at approximately 20° C. and a relative atmospheric humidity of 96%.

[7] = test system: Pyricularia oryzae; type: in vivo; conditions: rice, protective, 250 ppm, evaluated 5 days after inoculation
[8] = test system: Botrytis cinerea; test: Botrytis test (beans)/preventive; type: in vivo; conditions: preventive, 100 ppm, lesion size 2 days after inoculation
Protocol: Botrytis Test (Beans)/Preventive
• Solvent: 24.5 parts by weight of acetone • 24.5 parts by weight of N,N-dimethylformamide • Emulsifier: 1 part by weight of alkylaryl polyglycol ether
After the spray coating has dried on, 2 small pieces of agar covered with growth of Botrytis cinerea are placed on each leaf. The inoculated plants are placed in a darkened chamber at 20° C. and a relative atmospheric humidity of 100%.
2 days after the inoculation, the size of the lesions on the leaves is evaluated.

[9] = test system: Phakopsora pachyrhizi; test: Phakopsora test (soybeans)/protective; type: in vivo; conditions: protective, 250 ppm, evaluated 11 days after inoculation
Source text: Phakopsora Test (Soybeans)/Protective

[10] = test system: Fusarium nivale (var. majus); test: Fusarium nivale (var. majus)-test (wheat)/preventive; type: in vivo; conditions: preventive; for Efficacy: evaluated 5 days after inoculation
Protocol: After the spray coating has been dried, the plants are slightly injured by using a sandblast and afterwards they are sprayed with a conidia suspension of Fusarium nivale (var. majus). The plants are placed in the greenhouse under a translucent incubation cabinet at a temperature of approximately 10° C. and a relative atmospheric humidity of approximately 100%.

[11] = logP by HPLC on reversed-phase column (EEC Directive 79/831 Annex V.A8); type: physicochemical; conditions: HPLC, reversed-phase C 18, 40° C., 0.1% aqueous formic acid and acetonitrile gradient
Protocol: In table 1, the logP values were determined in accordance with EEC Directive 79/831 Annex V.A8 by HPLC (High Performance Liquid Chromatography) on a reversed-phase column (C 18), using the method described below: Temperature: 40° C.; Mobile phases: 0.1% aqueous formic acid and acetonitrile; linear gradient from 10% acetonitrile to 90% acetonitrile. Calibration was carried out using unbranched alkan-2-ones (comprising 3 to 16 carbon atoms) with known logP values (determination of the logP values by the retention times using linear interpolation between two successive alkanones). lambda-max-values were determined using UV-spectra from 200 nm to 400 nm and the peak values of the chromatographic signals.

[12] = test system: Sphaerotheca fuliginea; test: Sphaerotheca test (cucumber)/preventive; type: in vivo; conditions: preventive, 500 ppm, evaluated 7 days after inoculation
Protocol: Then the plants are placed in a greenhouse at approximately 23° C. and a relative atmospheric humidity of approximately 70%.

[13] = test system: Uromyces appendiculatus; test: Uromyces test (beans)/preventive; type: in vivo; conditions: preventive, 100 ppm, evaluated 10 days after inoculation
Source text: Uromyces Test (Beans)/Preventive

[14] = test system: Blumeria graminis f.sp. hordei; test: Blumeria test (barley)/preventive; type: in vivo; conditions: preventive, 500 ppm, evaluated 7 days after inoculation
Protocol: After the spray coating has been dried, the plants are dusted with spores of Blumeria graminis f.sp. hordei. The plants are placed in the greenhouse at a temperature of approximately 18° C. and a relative atmospheric humidity of approximately 80% to promote the development of mildew pustules.

## CC(C)CC(C)c1sccc1NC(=O)c1c(C(F)F)nn(C)c1Cl (stereo not shown) [Example 3]
[1]
  Efficacy: 100%
[2]
  Efficacy: 97%
[3]
  Efficacy: 100%
[4]
  Efficacy: 100%
[5]
  Efficacy: 100%
[6]
  Efficacy: 100%
[7]
  Efficacy: 97%
[8]
  Efficacy: 98%
[9]
  Efficacy: 98%
[10]; 250 ppm
  Efficacy: 86%
[10]; 500 ppm
  Efficacy: 100%
[10]; dose of 250 ppm and 500 ppm (text summary of table G2)
  protection: at least 80%
[11]
  logP: 4.19
[12]
  Efficacy: 96%
[13]
  Efficacy: 100%
[14]
  Efficacy: 100%

Reference: patent US20130231303A1, “5-HALOGENOPYRAZOLE(THIO)CARBOXAMIDES” (Bayer Intellectual Property GmbH, priority 2010, published 2013)
